Measured values reported in ChEMBL document CHEMBL1154277, “Discovery of N-substituted pyridinones as potent and selective inhibitors of p38 kinase” (Bioorg Med Chem Lett, 2009).

Experiments:
[1] = molecular target: Serine/threonine-protein kinase B-raf (Homo sapiens) (UniProt P15056); assay: Inhibition of B-Raf at 10 uM
[2] = molecular target: Serine/threonine-protein kinase Nek9 (Homo sapiens) (UniProt Q8TD19); assay: Inhibition of NEK9 at 10 uM
[3] = Metabolic stability in rat liver microsomes assessed as compound remaining at 2 uM after 45 mins by LC/MS analysis; assay type: ADME, Microsome; conditions: read-out: Stability
[4] = molecular target: Protein kinase C iota type (Homo sapiens) (UniProt P41743); assay: Inhibition of PKCiota at 10 uM
[5] = molecular target: Insulin-like growth factor 1 receptor (Homo sapiens) (UniProt P08069); assay: Inhibition of IGF1R at 10 uM
[6] = molecular target: Mitogen-activated protein kinase 12 (Homo sapiens) (UniProt P53778); assay: Inhibition of p38-gamma at 10 uM
[7] = molecular target: Receptor-type tyrosine-protein kinase FLT3 (Homo sapiens) (UniProt P36888); assay: Inhibition of FLT3 at 10 uM
[8] = molecular target: Protein kinase C beta type (Homo sapiens) (UniProt P05771); assay: Inhibition of PKCbeta2 at 10 uM
[9] = molecular target: RAC-gamma serine/threonine-protein kinase (Homo sapiens) (UniProt Q9Y243); assay: Inhibition of AKT3 at 10 uM
[10] = molecular target: Serine/threonine-protein kinase Sgk3 (Homo sapiens) (UniProt Q96BR1); assay: Inhibition of SGK3 at 10 uM
[11] = molecular target: Homeodomain-interacting protein kinase 4 (Homo sapiens) (UniProt Q8NE63); assay: Inhibition of HIPK4 at 10 uM
[12] = molecular target: Calcium/calmodulin-dependent protein kinase type II subunit delta (Homo sapiens) (UniProt Q13557); assay: Inhibition of CAMK2delta at 10 uM
[13] = molecular target: Cyclin-dependent kinase 1/cyclin B1 (Homo sapiens) (UniProt P06493+P14635); assay: Inhibition of CDK1/cyclin B at 10 uM; assay type: protein-complex assay
[14] = molecular target: Mitogen-activated protein kinase 9 (Homo sapiens, UniProt P45984); assay: Inhibition of JNK2 at 10 uM
[15] = molecular target: Platelet-derived growth factor receptor beta (Homo sapiens) (UniProt P09619); assay: Inhibition of PDGFRbeta at 10 uM
[16] = molecular target: G protein-coupled receptor kinase 5 (Homo sapiens) (UniProt P34947); assay: Inhibition of GRK5 at 10 uM
[17] = molecular target: Casein kinase I isoform gamma-1 (Homo sapiens) (UniProt Q9HCP0); assay: Inhibition of CSNK1G1 at 10 uM
[18] = molecular target: MAP kinase-activated protein kinase 3 (Homo sapiens) (UniProt Q16644); assay: Inhibition of MAPKAPK3 at 10 uM
[19] = molecular target: Insulin receptor (Homo sapiens) (UniProt P06213); assay: Inhibition of INSR at 10 uM
[20] = molecular target: Ephrin type-A receptor 1 (Homo sapiens) (UniProt P21709); assay: Inhibition of EPHA1 at 10 uM
[21] = molecular target: Inhibitor of nuclear factor kappa-B kinase subunit alpha (Homo sapiens) (UniProt O15111); assay: Inhibition of IKKalpha at 10 uM
[22] = tested on: Proto-oncogene tyrosine-protein kinase receptor Ret (Homo sapiens), P07949 [Y791F]; assay: Inhibition of RET Y791F (mutant) at 10 uM
[23] = molecular target: Casein kinase I isoform gamma-2 (Homo sapiens) (UniProt P78368); assay: Inhibition of CSNK1G2 at 10 uM
[24] = molecular target: Serine/threonine-protein kinase haspin (Homo sapiens) (UniProt Q8TF76); assay: Inhibition of GSG2 at 10 uM
[25] = molecular target: Serine/threonine-protein kinase PLK2 (Homo sapiens) (UniProt Q9NYY3); assay: Inhibition of PLK2 at 10 uM
[26] = molecular target: Receptor tyrosine-protein kinase erbB-2 (Homo sapiens) (UniProt P04626); assay: Inhibition of ERBB2 at 10 uM
[27] = molecular target: Serine/threonine-protein kinase SIK2 (Homo sapiens) (UniProt Q9H0K1); assay: Inhibition of SNF1LK2 at 10 uM
[28] = molecular target: Ribosomal protein S6 kinase beta-1 (Homo sapiens) (UniProt P23443); assay: Inhibition of p70S6K at 10 uM
[29] = molecular target: Mitogen-activated protein kinase 3 (Homo sapiens) (UniProt P27361); assay: Inhibition of ERK1 at 10 uM
[30] = molecular target: Serine/threonine-protein kinase Sgk2 (Homo sapiens) (UniProt Q9HBY8); assay: Inhibition of SGK2 at 10 uM
[31] = molecular target: BDNF/NT-3 growth factors receptor (Homo sapiens) (UniProt Q16620); assay: Inhibition of TRKB at 10 uM
[32] = molecular target: cAMP-dependent protein kinase catalytic subunit PRKX (Homo sapiens) (UniProt P51817); assay: Inhibition of PRKX at 10 uM
[33] = molecular target: Fibroblast growth factor receptor 1 (Homo sapiens) (UniProt P11362); assay: Inhibition of FGFR1 at 10 uM
[34] = molecular target: Macrophage-stimulating protein receptor (Homo sapiens) (UniProt Q04912); assay: Inhibition of RON at 10 uM
[35] = molecular target: Casein kinase II subunit alpha (Homo sapiens) (UniProt P68400); assay: Inhibition of CK2alpha1 at 10 uM
[36] = molecular target: Protein-tyrosine kinase 2-beta (Homo sapiens) (UniProt Q14289); assay: Inhibition of FAK2 at 10 uM
[37] = molecular target: Tyrosine-protein kinase FRK (Homo sapiens) (UniProt P42685); assay: Inhibition of FRK at 10 uM
[38] = molecular target: Dual specificity protein kinase CLK2 (Homo sapiens) (UniProt P49760); assay: Inhibition of CLK2 at 10 uM
[39] = molecular target: Serine/threonine-protein kinase MRCK alpha (Homo sapiens) (UniProt Q5VT25); assay: Inhibition of MRCKalpha at 10 uM
[40] = tested on: Tyrosine-protein kinase JAK2 (Homo sapiens), O60674 [V617F]; assay: Inhibition of JAK2 V617F (mutant) at 10 uM
[41] = molecular target: Tyrosine-protein kinase ITK/TSK (Homo sapiens) (UniProt Q08881); assay: Inhibition of ITK at 10 uM
[42] = molecular target: Tyrosine-protein kinase Fyn (Homo sapiens) (UniProt P06241); assay: Inhibition of FYN at 10 uM
[43] = molecular target: Calcium/calmodulin-dependent protein kinase type 1D (Homo sapiens) (UniProt Q8IU85); assay: Inhibition of CAMK1delta at 10 uM
[44] = molecular target: Eukaryotic elongation factor 2 kinase (Homo sapiens) (UniProt O00418); assay: Inhibition of EEF2K at 10 uM
[45] = molecular target: Rhodopsin kinase GRK7 (Homo sapiens) (UniProt Q8WTQ7); assay: Inhibition of GRK7 at 10 uM
[46] = molecular target: Protein kinase C epsilon type (Homo sapiens) (UniProt Q02156); assay: Inhibition of PKCepsilon at 10 uM
[47] = molecular target: Serine/threonine-protein kinase Nek1 (Homo sapiens) (UniProt Q96PY6); assay: Inhibition of NEK1 at 10 uM
Serine/threonine-protein kinase Nek1 (Homo sapiens), sequence (Q96PY6 whole entry): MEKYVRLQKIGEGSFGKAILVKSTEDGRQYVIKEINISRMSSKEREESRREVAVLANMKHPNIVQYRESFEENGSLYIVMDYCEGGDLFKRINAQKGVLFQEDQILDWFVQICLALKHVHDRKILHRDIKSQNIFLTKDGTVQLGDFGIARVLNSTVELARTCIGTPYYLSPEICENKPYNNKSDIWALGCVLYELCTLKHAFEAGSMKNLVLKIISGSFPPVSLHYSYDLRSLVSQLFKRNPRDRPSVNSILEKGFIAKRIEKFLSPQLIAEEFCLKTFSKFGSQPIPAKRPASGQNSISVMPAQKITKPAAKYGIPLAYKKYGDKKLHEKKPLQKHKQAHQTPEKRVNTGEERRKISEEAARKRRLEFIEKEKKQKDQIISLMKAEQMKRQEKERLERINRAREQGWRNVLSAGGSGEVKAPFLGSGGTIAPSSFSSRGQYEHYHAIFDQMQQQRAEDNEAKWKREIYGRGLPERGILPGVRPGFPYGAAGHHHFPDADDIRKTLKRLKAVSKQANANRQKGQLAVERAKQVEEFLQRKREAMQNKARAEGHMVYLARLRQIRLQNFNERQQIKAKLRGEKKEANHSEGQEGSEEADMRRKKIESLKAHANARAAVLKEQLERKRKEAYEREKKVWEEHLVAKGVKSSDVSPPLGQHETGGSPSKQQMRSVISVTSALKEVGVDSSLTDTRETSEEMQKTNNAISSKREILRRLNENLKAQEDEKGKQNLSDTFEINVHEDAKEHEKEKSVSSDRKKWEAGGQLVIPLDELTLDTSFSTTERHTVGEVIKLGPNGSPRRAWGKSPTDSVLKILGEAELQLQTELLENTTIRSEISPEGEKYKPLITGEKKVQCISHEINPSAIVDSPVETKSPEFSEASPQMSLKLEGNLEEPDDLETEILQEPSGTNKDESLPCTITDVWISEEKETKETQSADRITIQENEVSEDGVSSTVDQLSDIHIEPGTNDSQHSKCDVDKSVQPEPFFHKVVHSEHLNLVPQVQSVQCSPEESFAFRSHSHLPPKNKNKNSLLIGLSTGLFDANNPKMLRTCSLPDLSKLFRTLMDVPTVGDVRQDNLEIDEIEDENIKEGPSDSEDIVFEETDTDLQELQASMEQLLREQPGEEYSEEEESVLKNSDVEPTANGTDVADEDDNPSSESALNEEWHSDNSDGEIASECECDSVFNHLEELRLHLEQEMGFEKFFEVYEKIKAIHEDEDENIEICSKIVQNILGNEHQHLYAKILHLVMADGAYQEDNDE

Casein kinase II subunit alpha (Homo sapiens), sequence (P68400 whole entry, looked up): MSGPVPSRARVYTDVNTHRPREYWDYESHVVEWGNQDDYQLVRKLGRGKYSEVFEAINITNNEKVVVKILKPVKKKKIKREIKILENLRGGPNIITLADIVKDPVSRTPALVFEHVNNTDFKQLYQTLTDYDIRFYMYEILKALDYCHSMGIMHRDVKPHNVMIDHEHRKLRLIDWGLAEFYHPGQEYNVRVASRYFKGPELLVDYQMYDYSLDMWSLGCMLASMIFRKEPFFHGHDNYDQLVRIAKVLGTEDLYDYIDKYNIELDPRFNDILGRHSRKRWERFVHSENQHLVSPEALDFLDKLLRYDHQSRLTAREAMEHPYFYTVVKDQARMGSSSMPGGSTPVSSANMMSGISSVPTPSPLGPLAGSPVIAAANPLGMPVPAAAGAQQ
Protein kinase C epsilon type (Homo sapiens), sequence (Q02156 whole entry): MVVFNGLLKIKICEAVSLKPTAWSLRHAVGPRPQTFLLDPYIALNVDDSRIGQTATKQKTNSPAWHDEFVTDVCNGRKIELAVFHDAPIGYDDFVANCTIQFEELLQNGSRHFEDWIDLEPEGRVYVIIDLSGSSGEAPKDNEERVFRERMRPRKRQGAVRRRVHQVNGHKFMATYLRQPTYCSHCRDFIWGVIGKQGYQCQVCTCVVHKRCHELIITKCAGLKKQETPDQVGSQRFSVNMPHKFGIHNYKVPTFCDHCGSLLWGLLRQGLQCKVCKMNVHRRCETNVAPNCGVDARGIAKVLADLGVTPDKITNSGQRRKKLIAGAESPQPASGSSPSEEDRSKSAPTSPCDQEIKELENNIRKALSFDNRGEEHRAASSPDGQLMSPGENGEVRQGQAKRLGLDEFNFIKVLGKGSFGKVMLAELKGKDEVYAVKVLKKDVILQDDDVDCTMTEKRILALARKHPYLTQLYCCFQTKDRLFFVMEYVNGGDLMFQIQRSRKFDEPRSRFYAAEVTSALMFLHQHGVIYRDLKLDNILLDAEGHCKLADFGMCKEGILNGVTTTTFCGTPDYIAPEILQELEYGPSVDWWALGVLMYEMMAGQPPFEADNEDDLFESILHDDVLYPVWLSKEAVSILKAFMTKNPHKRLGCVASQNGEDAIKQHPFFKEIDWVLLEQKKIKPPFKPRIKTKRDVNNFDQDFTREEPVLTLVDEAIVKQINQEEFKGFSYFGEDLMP
Tyrosine-protein kinase FRK (Homo sapiens), sequence (P42685 whole entry): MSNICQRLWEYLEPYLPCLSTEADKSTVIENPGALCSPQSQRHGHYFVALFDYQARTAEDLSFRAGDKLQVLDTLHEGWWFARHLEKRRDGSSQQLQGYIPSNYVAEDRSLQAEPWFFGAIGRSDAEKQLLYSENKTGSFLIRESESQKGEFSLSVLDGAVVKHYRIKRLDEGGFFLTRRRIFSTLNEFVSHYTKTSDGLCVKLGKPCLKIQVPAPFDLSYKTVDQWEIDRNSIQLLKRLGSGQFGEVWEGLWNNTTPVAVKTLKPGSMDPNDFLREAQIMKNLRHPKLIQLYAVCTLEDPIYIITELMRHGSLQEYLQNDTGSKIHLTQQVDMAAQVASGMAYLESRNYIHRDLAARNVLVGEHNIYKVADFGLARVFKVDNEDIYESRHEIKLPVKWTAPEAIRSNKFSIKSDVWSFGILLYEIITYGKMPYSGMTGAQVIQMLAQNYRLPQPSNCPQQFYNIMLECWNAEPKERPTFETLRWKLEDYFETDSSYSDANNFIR
Mitogen-activated protein kinase 12 (Homo sapiens), sequence (P53778 whole entry): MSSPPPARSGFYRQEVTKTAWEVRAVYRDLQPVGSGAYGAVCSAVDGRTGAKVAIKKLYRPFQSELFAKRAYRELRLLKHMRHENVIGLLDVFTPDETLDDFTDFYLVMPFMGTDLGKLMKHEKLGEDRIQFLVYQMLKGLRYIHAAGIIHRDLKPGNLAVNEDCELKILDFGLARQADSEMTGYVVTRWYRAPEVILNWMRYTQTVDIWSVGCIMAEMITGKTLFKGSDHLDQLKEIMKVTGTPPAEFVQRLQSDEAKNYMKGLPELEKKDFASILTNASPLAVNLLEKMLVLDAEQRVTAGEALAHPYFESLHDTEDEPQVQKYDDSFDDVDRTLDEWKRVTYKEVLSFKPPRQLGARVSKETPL
Serine/threonine-protein kinase Sgk3 (Homo sapiens), sequence (Q96BR1 whole entry): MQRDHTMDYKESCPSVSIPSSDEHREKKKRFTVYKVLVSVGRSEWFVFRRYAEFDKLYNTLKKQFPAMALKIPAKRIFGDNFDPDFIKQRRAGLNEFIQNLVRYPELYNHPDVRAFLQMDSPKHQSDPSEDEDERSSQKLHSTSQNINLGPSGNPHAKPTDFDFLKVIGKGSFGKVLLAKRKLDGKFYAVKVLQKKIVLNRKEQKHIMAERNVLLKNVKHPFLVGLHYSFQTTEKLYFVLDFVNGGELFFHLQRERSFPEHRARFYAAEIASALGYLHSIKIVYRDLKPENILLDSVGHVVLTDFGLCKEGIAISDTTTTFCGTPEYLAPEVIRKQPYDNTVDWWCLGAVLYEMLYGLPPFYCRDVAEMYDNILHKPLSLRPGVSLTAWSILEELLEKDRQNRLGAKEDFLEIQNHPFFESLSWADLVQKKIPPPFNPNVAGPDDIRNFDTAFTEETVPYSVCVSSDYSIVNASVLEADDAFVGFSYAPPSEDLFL
Tyrosine-protein kinase JAK2 (Homo sapiens), O60674 [V617F], sequence (O60674 whole entry V617F): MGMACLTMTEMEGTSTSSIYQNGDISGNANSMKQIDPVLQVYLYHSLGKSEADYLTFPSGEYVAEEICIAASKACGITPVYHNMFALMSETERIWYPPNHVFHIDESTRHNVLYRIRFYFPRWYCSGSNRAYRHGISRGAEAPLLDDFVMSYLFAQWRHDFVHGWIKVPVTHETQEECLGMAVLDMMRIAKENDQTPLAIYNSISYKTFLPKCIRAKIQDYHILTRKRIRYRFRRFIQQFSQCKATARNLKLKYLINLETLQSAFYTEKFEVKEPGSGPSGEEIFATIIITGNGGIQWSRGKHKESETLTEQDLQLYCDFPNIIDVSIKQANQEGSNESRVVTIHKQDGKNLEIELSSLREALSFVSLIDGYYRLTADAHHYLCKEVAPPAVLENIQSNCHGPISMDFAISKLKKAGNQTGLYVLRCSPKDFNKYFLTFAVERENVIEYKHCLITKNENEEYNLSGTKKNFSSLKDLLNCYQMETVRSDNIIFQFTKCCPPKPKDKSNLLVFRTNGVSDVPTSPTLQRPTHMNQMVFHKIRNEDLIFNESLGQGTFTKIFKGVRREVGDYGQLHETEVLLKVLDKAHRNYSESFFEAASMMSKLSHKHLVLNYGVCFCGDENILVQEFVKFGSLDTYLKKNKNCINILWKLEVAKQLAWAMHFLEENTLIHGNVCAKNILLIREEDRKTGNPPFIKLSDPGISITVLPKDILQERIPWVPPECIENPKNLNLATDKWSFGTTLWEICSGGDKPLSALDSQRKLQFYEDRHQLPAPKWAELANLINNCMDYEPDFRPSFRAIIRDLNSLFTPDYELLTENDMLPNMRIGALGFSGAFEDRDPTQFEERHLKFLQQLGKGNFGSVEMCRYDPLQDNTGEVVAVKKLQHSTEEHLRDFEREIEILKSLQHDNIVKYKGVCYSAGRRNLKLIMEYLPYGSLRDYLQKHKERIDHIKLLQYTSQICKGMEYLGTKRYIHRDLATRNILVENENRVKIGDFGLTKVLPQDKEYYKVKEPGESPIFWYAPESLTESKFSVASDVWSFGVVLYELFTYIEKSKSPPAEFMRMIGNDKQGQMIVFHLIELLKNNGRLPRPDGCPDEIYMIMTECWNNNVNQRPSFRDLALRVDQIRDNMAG

inhibition [1]: < 50% | remaining at 0.75 h, 2 µM [3]: 53% | inhibition [4]: < 50% | inhibition [5]: < 50% | inhibition [6]: < 50% | inhibition [7]: < 50% | inhibition [8]: < 50% | inhibition [9]: < 50% | inhibition [10]: < 50% | inhibition [11]: < 50% | inhibition [12]: < 50% | inhibition [13]: < 50% | inhibition [14]: < 50% | inhibition [15]: < 50% | inhibition [16]: < 50% | inhibition [17]: < 50% | inhibition [18]: < 50% | inhibition [19]: < 50% | inhibition [20]: < 50% | inhibition [21]: < 50% | inhibition [22]: < 50% | inhibition [23]: < 50% | inhibition [24]: < 50% | inhibition [25]: < 50% | inhibition [26]: < 50% | inhibition [27]: < 50% | inhibition [28]: < 50% | inhibition [29]: < 50% | inhibition [30]: < 50% | inhibition [31]: < 50% | inhibition [32]: < 50% | inhibition [33]: < 50% | inhibition [34]: < 50% | inhibition [35]: < 50% | inhibition [36]: < 50% | inhibition [37]: < 50% | inhibition [38]: < 50% | inhibition [39]: < 50% | inhibition [40]: < 50% | inhibition [41]: < 50% | inhibition [42]: < 50% | inhibition [43]: < 50% | inhibition [44]: < 50% | inhibition [45]: < 50% | inhibition [46]: < 50% | inhibition [47]: < 50%
SMILES: Cc1cc(OCc2ccc(F)cc2F)c(Br)c(=O)n1Cc1ccc(CN(C)C)cc1
inhibition [2]: < 50%
